Assay results as given in paper PMC6467875, “An experimentally validated approach to calculate the blood-brain barrier permeability of small molecules” (Scientific Reports, 2019).

Key:
[1] = source not stated; cited from earlier work
[2] = Transwell permeability assay with iPSC-derived hBMECs; format: in vitro ADME; settings: human, stem-cell derived hBMECs, obtained as part of this work
Procedure: To validate results from MD simulations, permeabilities for selected molecules were determined using the transwell assay with human induced pluripotent stem cell (iPSC)-derived hBMECs. […] Briefly, hBMECs were sub-cultured onto polyester 12-well transwell inserts with a 0.4 µm pore size (Corning) coated with 1:1 collagen IV (100 µg mL^−1, Sigma) and fibronectin (50 µg mL^−1, Sigma) at a density of 1 × 10^6 cells mL^−1 and allowed to reach confluence for another two days. Permeability experiments were performed only if the transendothelial electrical resistance (TEER) was in excess of 1500 Ω cm^2. Prior to permeability experiments, cells were washed with transport buffer (0.12 M NaCl, 25 mM NaHCO3, 3 mM KCl, 2 mM MgSO4, 2 mM CaCl2, 0.4 mM K2HPO4, 1 mM 4-(2-hydroxyethyl)-1-piperazineethanesulfonic acid (HEPES), and 0.1% human platelet poor derived serum) and 100 µL of the molecule of interest in transport buffer was introduced into the apical well.
Experimentally, solute permeabilities are determined using a transwell assay from the concentrations in the apical (luminal, CL) and basolateral (abluminal, CA) compartments after time t using:10 P=VA⋅CA/(t⋅S⋅CL), where VA is the volume of the basolateral compartment (see Supporting Material for details).

[3] = not told; cited from earlier work
red blood cells = test system: red blood cells; design: method as in Brahm et al. 40; settings: from rate constants km for transport into red blood cells, Papp = km/2; ref Brahm et al. 40; cited from earlier work
MDCKII cells = test system: MDCKII cells; design: method as in Summerfield et al. 32; settings: transwell, ref Summerfield et al. 32; cited from earlier work
[4] = from experiment; ref Atkinson, Berg, 1988; cited from earlier work
bovine BMECs = test system: bovine BMECs; design: method as in Shah et al. 33; settings: transwell, ref Shah et al. 33; cited from earlier work

N [Ammonia]
Dipole moment [1]: 1.47 D

Cn1c(=O)c2c(ncn2C)n(C)c1=O [Caffeine]
Papp A→B [2]: 21 ×10⁻⁶ cm/s | Dipole moment [1]: 3.65 D

O=C=O [Carbon -dioxide, Carbon dioxide]
Dipole moment [1]: 0 D | Papp [3]: 1.6 ± 0.4 × 10^−1 cm/s

CCO [Ethanol]
Papp (red blood cells): 0.0021 cm/s | Dipole moment [1]: 1.69 D

CCC1(C)CC(=O)NC1=O (stereo not shown) [Ethosuximide]
Papp (MDCKII cells): 9.7e-06 cm/s | Log P, octanol-water partition coefficient [4]: 0.38

OCC(O)CO [Glycerol]
Papp (bovine BMECs): 9.5e-06 cm/s | Dipole moment [1]: 2.56 D

CC(C)O [Isopropanol]
Papp (red blood cells): 0.0065 cm/s | Dipole moment [1]: 1.58 D
